Active and inactive are the calls of the source. The calls are words filed in the database; no cut-off is given here.
Assays:
[1] = AUC in mouse at 150 mg/kg, po; assay type: ADME, organism-based, Plasma; design: dose 150 mg/kg, route oral; settings: whole blood
Histone deacetylase 1 = Histone deacetylase 1 (Homo sapiens, UniProt Q13547); assay: Inhibition of HDAC1
HCT-116 [2] = assay: Antiproliferative activity against human HCT116 cells after 72 hrs; assay type: functional; settings: HCT-116, 72 h
[3] = Cmax in mouse at 150 mg/kg, po; assay type: ADME, organism-based; design: dose 150 mg/kg, route oral; settings: in vivo
HCT-116 [4] = assay: Antitumor activity against human HCT116 cells xenografted in po dosed mouse assessed as reduction in tumor growth dosed daily for 21 days; assay type: functional, organism-based
Mus musculus [5] = assay: Toxicity in human HCT116 cells xenografted CD1 mouse assessed as body weight loss at 100 mg/kg, po after 21 days; assay type: organism-based, HCT-116; design: dose 100 mg/kg, route oral; settings: in vivo, 504 h
Mus musculus [6] = assay: Effect on histone H2B acetylation in human HCT116 cells xenografted in CD1 mouse assessed as change in ratio of acetylated to deacetylated histone level at 150 mg/kg, po QD for 3 days measured after 24 hrs; assay type: functional, organism-based; design: dose 150 mg/kg; settings: HCT-116
[7] = Half life in Swiss-Webster mouse; assay type: ADME, organism-based; settings: in vivo
[8] = Oral bioavailability in Sprague-Dawley rat; assay type: ADME, organism-based; settings: in vivo
[9] = Volume of distribution at steady state in Swiss-Webster mouse; assay type: ADME, organism-based; settings: in vivo, read-out: Vdss
[10] = Plasma concentration in ip dosed nude CD-1 mouse after 3 hrs
[11] = Volume of distribution at steady state in Beagle dog; assay type: ADME, organism-based, Canis lupus familiaris; settings: in vivo, read-out: Vdss
[12] = Clearance in Sprague-Dawley rat plasma; assay type: ADME, organism-based
[13] = Half life in Sprague-Dawley rat; assay type: ADME, organism-based; settings: in vivo
[14] = Volume of distribution at steady state in Sprague-Dawley rat; assay type: ADME, organism-based; settings: in vivo, read-out: Vdss
[15] = AUC (0 to infinity) in Beagle dog; assay type: ADME, organism-based, Canis lupus familiaris; design: time infinity; settings: plasma
[16] = AUC (0 to infinity) in Swiss-Webster mouse; assay type: ADME, organism-based; design: time infinity; settings: plasma
[17] = AUC (0 to infinity) in po dosed Sprague-Dawley rat; assay type: ADME, organism-based; design: time infinity, route oral; settings: plasma
[18] = Half life in Beagle dog; assay type: ADME, organism-based, Canis lupus familiaris; settings: in vivo

Sequence of Histone deacetylase 1 (Q13547 whole entry): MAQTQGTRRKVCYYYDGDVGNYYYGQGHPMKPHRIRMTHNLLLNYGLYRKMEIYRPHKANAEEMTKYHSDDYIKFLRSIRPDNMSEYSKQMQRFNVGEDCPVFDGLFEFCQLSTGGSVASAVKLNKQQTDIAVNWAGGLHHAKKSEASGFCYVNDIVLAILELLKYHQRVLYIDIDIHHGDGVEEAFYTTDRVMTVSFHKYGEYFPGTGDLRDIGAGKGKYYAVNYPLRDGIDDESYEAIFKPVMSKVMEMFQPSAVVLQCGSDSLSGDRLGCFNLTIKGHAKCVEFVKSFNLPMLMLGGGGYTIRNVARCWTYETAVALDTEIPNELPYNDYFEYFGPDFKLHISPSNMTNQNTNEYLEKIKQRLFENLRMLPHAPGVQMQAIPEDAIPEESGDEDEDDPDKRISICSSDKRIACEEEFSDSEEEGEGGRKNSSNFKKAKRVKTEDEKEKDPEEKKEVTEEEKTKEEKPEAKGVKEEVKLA

## CCOP(=O)(CC)Cc1ccc(C(=O)Nc2cc(-c3cccs3)ccc2N)cc1 (stereo not given)
[1]
  AUC: 17 µM·h
Histone deacetylase 1
  IC50: 6.5 nM
HCT-116 [2]
  GI50: 240 nM
[3]
  Cmax: 17 µM

## COP(=O)(c1ccccc1)c1ccc(C(=O)Nc2cc(-c3cccs3)ccc2N)cc1 (stereo not given)
[1]
  AUC: 12 µM·h
Histone deacetylase 1
  IC50: 29 nM
HCT-116 [2]
  GI50: 380 nM
[3]
  Cmax: 11 µM

## CP(=O)(Cc1ccc(C(=O)Nc2cc(-c3cccs3)ccc2N)cc1)OCc1cccnc1 (stereo not given)
[1]
  AUC: 16 µM·h
Histone deacetylase 1
  IC50: 3.5 nM
HCT-116 [2]
  GI50: 130 nM
[3]
  Cmax: 8.8 µM

## CCOP(=O)(O)c1ccc(C(=O)Nc2cc(-c3cccs3)ccc2N)cc1
Histone deacetylase 1
  IC50: 42 nM
HCT-116 [2]
  GI50: > 20000 nM

## COP(C)(=O)Cc1ccc(C(=O)Nc2cc(-c3cccs3)ccc2N)cc1 (stereo not given)
[1]
  AUC: 115 µM·h
HCT-116 [4]
  Activity: Dose-dependent effect
Histone deacetylase 1
  IC50: 54 nM
Mus musculus [5]
  Activity: 22%
Mus musculus [6]
  Activity: Active
HCT-116 [2]
  GI50: 160 nM
[3]
  Cmax: 88 µM

## COP(C)(=O)c1ccc(C(=O)Nc2cc(-c3cccs3)ccc2N)cc1 (stereo not given)
[1]
  AUC: 60 µM·h
Histone deacetylase 1
  IC50: 52 nM
HCT-116 [2]
  GI50: 420 nM
[3]
  Cmax: 39 µM

## CCOP(=O)(O)Cc1ccc(C(=O)Nc2cc(-c3cccs3)ccc2N)cc1
Histone deacetylase 1
  IC50: 38 nM
HCT-116 [2]
  GI50: > 20000 nM

## CCOP(=O)(Cc1ccc(C(=O)Nc2cc(-c3cccs3)ccc2N)cc1)OCC
Histone deacetylase 1
  IC50: 13 nM
[7]
  half-life: 2.29 days
[8]
  bioavailability: 45%
[9]
  Vd: 20.1 L/kg
HCT-116 [2]
  GI50: 250 nM
[10]
  concentration at 3 h: 1540 nM
[11]
  Vd: 2.85 L/kg
[12]
  clearance: 15.8 mL/min/kg
[13]
  half-life: 330 min
[14]
  Vd: 7.27 L/kg
[15]
  AUC(0-inf): 0.25 µM·h
[16]
  AUC(0-inf): 0.17 µM·h
[17]
  AUC(0-inf): 4.4 µM·h
[18]
  half-life: 25.8 min

## CCP(=O)(Cc1ccc(C(=O)Nc2cc(-c3cccs3)ccc2N)cc1)OC (stereo not given)
Histone deacetylase 1
  IC50: 7 nM
HCT-116 [2]
  GI50: 130 nM

## CCP(=O)(CC)Cc1cccc(C(=O)Nc2cc(-c3cccs3)ccc2N)c1
Histone deacetylase 1
  IC50: 270 nM
HCT-116 [2]
  GI50: > 20000 nM

## CCOP(C)(=O)Cc1ccc(C(=O)Nc2cc(-c3cccs3)ccc2N)cc1 (stereo not given)
[1]
  AUC: 50 µM·h
Histone deacetylase 1
  IC50: 16 nM
Mus musculus [6]
  Activity: inactive
HCT-116 [2]
  GI50: 330 nM
[3]
  Cmax: 31 µM

Reference: ChEMBL document CHEMBL1153943, “Exploring the pharmacokinetic properties of phosphorus-containing selective HDAC 1 and 2 inhibitors (SHI-1:2)” (Bioorg Med Chem Lett, 2009)
